Experimental data as given in publication PMC10619132 (RSC Chemical Biology, 2023).

Columns and labels:
[1] = target: YAP:TEAD1 complex (Homo sapiens, UniProt P28347); test: Anti-FLAG co-immunoprecipitation of HA-YAP in HEK293T cells; assay type: cell-based; conditions: 10 μM, 24 hours
[2] = target: YAP:TEAD4 complex (Homo sapiens, UniProt Q15561); test: as above; assay type: cell-based; conditions: 10 μM, 24 hours
[3] = target: YAP:TEAD2 complex (Homo sapiens, UniProt Q15562); test: as above; assay type: cell-based; conditions: 10 μM, 24 hours
[4] = test system: Gal4-TEAD4 fusion protein with YAP; test: Gal4-TEAD4 / YAP UAS-LUC reporter assay in HEK293T cells; assay type: cell-based; conditions: 20 μM, 24 hours
[5] = target: YAP–TEAD4-YBD interaction (Homo sapiens, UniProt Q15561); test: Primary FP screening assay, 1536-well; assay type: binding; conditions: read-out: IC50 in the primary FP screening assay
YAP–TEAD4-YBD interaction, sequence (Q15561 216-434): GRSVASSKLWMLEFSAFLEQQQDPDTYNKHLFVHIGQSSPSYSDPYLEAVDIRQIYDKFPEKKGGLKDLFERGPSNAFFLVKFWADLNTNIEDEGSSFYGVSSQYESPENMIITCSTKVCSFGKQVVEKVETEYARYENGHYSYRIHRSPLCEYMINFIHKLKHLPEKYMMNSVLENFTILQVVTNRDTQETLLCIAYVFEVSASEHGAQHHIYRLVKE

YAP:TEAD1 complex, sequence (P28347 whole entry, one chain of several): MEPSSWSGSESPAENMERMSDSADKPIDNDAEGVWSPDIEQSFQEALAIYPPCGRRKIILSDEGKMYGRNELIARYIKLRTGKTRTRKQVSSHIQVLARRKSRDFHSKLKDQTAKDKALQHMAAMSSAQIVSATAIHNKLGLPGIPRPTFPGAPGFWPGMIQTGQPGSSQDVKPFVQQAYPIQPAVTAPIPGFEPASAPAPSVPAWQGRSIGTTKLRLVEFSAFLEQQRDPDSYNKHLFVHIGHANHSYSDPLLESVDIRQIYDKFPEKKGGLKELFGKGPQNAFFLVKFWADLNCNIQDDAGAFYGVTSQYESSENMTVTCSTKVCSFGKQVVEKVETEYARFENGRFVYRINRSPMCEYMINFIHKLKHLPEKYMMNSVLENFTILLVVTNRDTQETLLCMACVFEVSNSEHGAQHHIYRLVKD
YAP:TEAD2 complex, sequence (Q15562 whole entry, the tested form may be a part, one chain of several): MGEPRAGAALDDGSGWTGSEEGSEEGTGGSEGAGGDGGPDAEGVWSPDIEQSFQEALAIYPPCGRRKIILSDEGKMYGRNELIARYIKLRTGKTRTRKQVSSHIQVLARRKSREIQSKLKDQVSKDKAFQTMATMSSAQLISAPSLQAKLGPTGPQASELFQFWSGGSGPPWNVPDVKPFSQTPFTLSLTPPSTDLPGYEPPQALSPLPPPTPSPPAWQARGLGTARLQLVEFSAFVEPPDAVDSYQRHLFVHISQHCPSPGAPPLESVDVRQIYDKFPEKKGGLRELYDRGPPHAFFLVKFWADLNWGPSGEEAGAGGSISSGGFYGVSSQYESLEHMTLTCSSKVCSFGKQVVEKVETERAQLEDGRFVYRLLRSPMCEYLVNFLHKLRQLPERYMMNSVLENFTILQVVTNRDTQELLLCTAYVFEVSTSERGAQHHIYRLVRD
YAP:TEAD4 complex, sequence (Q15561 whole entry, one chain of several): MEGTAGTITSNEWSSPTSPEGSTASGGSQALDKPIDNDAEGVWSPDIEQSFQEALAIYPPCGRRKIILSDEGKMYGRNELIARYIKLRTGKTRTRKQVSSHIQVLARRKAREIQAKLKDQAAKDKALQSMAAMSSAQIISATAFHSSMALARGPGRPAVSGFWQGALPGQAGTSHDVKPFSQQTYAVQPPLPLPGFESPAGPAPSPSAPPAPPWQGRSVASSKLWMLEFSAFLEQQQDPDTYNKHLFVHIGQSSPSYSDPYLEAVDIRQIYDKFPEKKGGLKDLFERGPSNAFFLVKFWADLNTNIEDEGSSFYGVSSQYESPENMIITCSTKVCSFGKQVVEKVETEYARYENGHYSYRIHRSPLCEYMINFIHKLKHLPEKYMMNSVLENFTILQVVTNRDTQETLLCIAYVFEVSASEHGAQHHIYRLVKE

| Molecule | inhibition of HA-YAP association with FLAG-TEAD1 [1] | inhibition of HA-YAP association with FLAG-TEAD4 [2] | inhibition of HA-YAP association with FLAG-TEAD2 [3] | decrease in YAP-driven luciferase signal [4] [%] | IC50 [5] [nM] |
| --- | --- | --- | --- | --- | --- |
| C=CC(=O)N1C[C@@H](n2cc(-c3cccnc3)nn2)[C@H](OCc2ccc(C(F)(F)F)cc2)C1 [MYF-03-69] | robustly inhibited the association with TEAD1 transgene | strongly inhibited | lesser inhibitory effect |  |  |
| Verteporfin [VTP] |  |  |  | 88 | 544 |
